# Legend:
# Assay type in all cases: cell-based
# S. aureus (CiproS) = assay: In vitro MIC, agar dilution; details: Staphylococcus aureus
# S. aureus (CiproR) = assay: In vitro MIC, agar dilution; details: Staphylococcus aureus
# S. epidermidis (CiproS) = assay: In vitro MIC, agar dilution; details: Staphylococcus epidermidis
# S. pneumoniae (PenS) = assay: In vitro MIC, agar dilution; details: Streptococcus pneumoniae
# S. pneumoniae (PenR) = assay: In vitro MIC, agar dilution; details: Streptococcus pneumoniae
# S. pneumoniae (CiproR) = assay: In vitro MIC, agar dilution; details: Streptococcus pneumoniae, read-out: MIC Range
# S. pyogenes = assay: In vitro MIC, agar dilution; details: Streptococcus pyogenes
# E. faecium (CiproS) = assay: In vitro MIC, agar dilution; details: Enterococcus faecium, E. faecium (CiproS), 16 isolates
# E. faecium (CiproR) = assay: In vitro MIC, agar dilution; details: Enterococcus faecium; E. faecium (CiproR), 2 isolates; read-out: MIC Range
# E. faecium (VanS) = assay: In vitro MIC, agar dilution; details: Enterococcus faecium, E. faecium (VanS), 11 isolates
# E. faecalis (VanS) = assay: In vitro MIC, agar dilution; details: Enterococcus faecalis
# Enterococcus spp. (VanR) = assay: In vitro MIC, agar dilution; details: Enterococcus spp. (VanR), 21 isolates
# E. coli = assay: In vitro MIC, agar dilution; details: Escherichia coli, 25 isolates
# How it was run: (§1)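 Agar dilution plates were inoculated with ~10^4 CFU per spot by replicator, using 1:100 dilutions (1:10 for slow growers) and incubated at 35–37 °C for 20–24 h. MIC is the lowest concentration giving no growth, where slight haze or sparse colonies count as none, judged against a compound-free BHI agar control.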
# Salmonella spp. = assay: In vitro MIC, agar dilution; details: 23 isolates
# How it was run: as §1
# Shigella spp. = assay: microbe, parasite or virus in culture; details: read-out: MIC Range
# Klebsiella spp. = assay: In vitro MIC, agar dilution
# P. mirabilis = assay: In vitro MIC, agar dilution; details: Proteus mirabilis
# Providencia spp. = assay: In vitro MIC, agar dilution; details: Providencia spp., 28 isolates
# Enterobacter spp. = assay: In vitro MIC, agar dilution
# P. aeruginosa (CiproS) = assay: In vitro MIC, agar dilution; details: Pseudomonas aeruginosa, P. aeruginosa (CiproS), 24 isolates
# P. aeruginosa (CiproR) = assay: In vitro MIC, agar dilution; details: Pseudomonas aeruginosa
# C. difficile = assay: In vitro MIC, agar dilution; details: Clostridioides difficile
# C. perfringens = assay: microbe, parasite or virus in culture; details: Clostridium perfringens
# H. influenzae = assay: In vitro MIC, agar dilution; details: Haemophilus influenzae
# M. catarrhalis = assay: In vitro MIC, agar dilution; details: Moraxella catarrhalis
# Legionella spp. = assay: microbe, parasite or virus in culture; details: Legionella
# M. pneumoniae = assay: In vitro MIC, agar dilution; details: Mycoplasmoides pneumoniae, read-out: MIC Range
# N. gonorrhoeae = assay: In vitro MIC, agar dilution; details: Neisseria gonorrhoeae
# H. pylori = assay: In vitro MIC, agar dilution; details: Helicobacter pylori
# M. avium = assay: In vitro MIC, agar dilution; details: Mycobacterium avium
structure (smiles),measurement,setting,value
"C[C@@H]1CN(c2c(F)c(N)c3c(=O)c(C(=O)O)cn(C4CC4)c3c2F)C[C@H](C)N1 [Sparfloxacin, sparfloxacin]",MIC50,S. aureus (CiproS),0.03 mg/L
same,MIC90,S. aureus (CiproS),0.06 mg/L
same,MIC,"S. aureus (CiproS); S. aureus (CiproS), 21 isolates, read-out: MIC Range",0.03 to 0.06 mg/L
same,MIC,S. aureus (CiproR); read-out: MIC Range,0.12 to 16 mg/L
same,MIC50,"S. aureus (CiproR); S. aureus (CiproR), 25 isolates, read-out: MIC50",4 mg/L
same,MIC90,"S. aureus (CiproR); S. aureus (CiproR), 25 isolates, read-out: MIC90",8 mg/L
same,MIC90,S. epidermidis (CiproS),0.12 mg/L
same,MIC50,"S. epidermidis (CiproS); S. epidermidis (CiproS), 23 isolates, read-out: MIC50",0.06 mg/L
same,MIC,"S. epidermidis (CiproS); S. epidermidis (CiproS), 23 isolates, read-out: MIC Range",0.03 to 0.12 mg/L
same,MIC90,S. pneumoniae (PenS),0.5 mg/L
same,MIC,S. pneumoniae (PenS); read-out: MIC Range,0.12 to 0.5 mg/L
same,MIC50,"S. pneumoniae (PenS); S. pneumoniae (PenS), 20 isolates, read-out: MIC50",0.25 mg/L
same,MIC90,S. pneumoniae (PenR),0.25 mg/L
same,MIC,S. pneumoniae (PenR); read-out: MIC Range,0.12 to 0.25 mg/L
same,MIC50,"S. pneumoniae (PenR); S. pneumoniae (PenR), 25 isolates, read-out: MIC50",0.25 mg/L
same,MIC,S. pneumoniae (CiproR),0.25 to 0.5 mg/L
same,MIC90,S. pyogenes,0.5 mg/L
same,MIC,S. pyogenes; read-out: MIC Range,0.12 to 1 mg/L
same,MIC50,"S. pyogenes; S. pyogenes, 21 isolates, read-out: MIC50",0.25 mg/L
same,MIC50,E. faecium (CiproS); read-out: MIC50,0.5 mg/L
same,MIC90,E. faecium (CiproS); read-out: MIC90,1 mg/L
same,MIC,E. faecium (CiproS); read-out: MIC Range,0.5 to 32 mg/L
same,MIC,E. faecium (CiproR),8 to 32 mg/L
same,MIC50,E. faecium (VanS); read-out: MIC50,1 mg/L
same,MIC90,E. faecium (VanS); read-out: MIC90,2 mg/L
same,MIC,E. faecium (VanS); read-out: MIC Range,1 to 4 mg/L
same,MIC90,E. faecalis (VanS),0.5 mg/L
same,MIC,E. faecalis (VanS); read-out: MIC Range,0.25 to 1 mg/L
same,MIC50,"E. faecalis (VanS); E. faecalis (VanS), 17 isolates, read-out: MIC50",0.5 mg/L
same,MIC50,Enterococcus spp. (VanR); read-out: MIC50,0.5 mg/L
same,MIC90,Enterococcus spp. (VanR); read-out: MIC90,8 mg/L
same,MIC,Enterococcus spp. (VanR); read-out: MIC Range,0.25 to 32 mg/L
same,MIC,E. coli,0.004 to 0.03 mg/L
same,MIC50,E. coli; read-out: MIC50,0.015 mg/L
same,MIC90,E. coli; read-out: MIC90,0.03 mg/L
same,MIC,Salmonella spp.,0.004 to 0.5 mg/L
same,MIC50,Salmonella spp.; read-out: MIC50,0.03 mg/L
same,MIC90,Salmonella spp.; read-out: MIC90,0.06 mg/L
same,MIC,Shigella spp.,0.004 to 0.015 mg/L
same,MIC90,Klebsiella spp.; Klebsiella,0.06 mg/L
same,MIC50,"Klebsiella spp.; Klebsiella spp., 29 isolates, read-out: MIC50",0.06 mg/L
same,MIC,"Klebsiella spp.; Klebsiella spp., 29 isolates, read-out: MIC Range",0.004 to 0.5 mg/L
same,MIC90,P. mirabilis,0.25 mg/L
same,MIC,P. mirabilis; read-out: MIC Range,0.12 to 0.5 mg/L
same,MIC50,"P. mirabilis; P. mirabilis, 20 isolates, read-out: MIC50",0.25 mg/L
same,MIC50,Providencia spp.; read-out: MIC50,0.12 mg/L
same,MIC90,Providencia spp.; read-out: MIC90,1 mg/L
same,MIC,Providencia spp.; read-out: MIC Range,0.015 to 2 mg/L
same,MIC90,Enterobacter spp.; Enterobacter,0.06 mg/L
same,MIC50,"Enterobacter spp.; Enterobacter spp., 35 isolates, read-out: MIC50",0.06 mg/L
same,MIC,"Enterobacter spp.; Enterobacter spp., 35 isolates, read-out: MIC Range",0.008 to 0.25 mg/L
same,MIC50,P. aeruginosa (CiproS); read-out: MIC50,0.5 mg/L
same,MIC90,P. aeruginosa (CiproS); read-out: MIC90,1 mg/L
same,MIC,P. aeruginosa (CiproS); read-out: MIC Range,0.06 to 8 mg/L
same,MIC90,P. aeruginosa (CiproR),128 mg/L
same,MIC50,"P. aeruginosa (CiproR); P. aeruginosa (CiproR), 20 isolates, read-out: MIC50",64 mg/L
same,MIC,C. difficile; read-out: MIC Range,2 to 4 mg/L
same,MIC50,"C. difficile; C. difficile, 10 isolates, read-out: MIC50",4 mg/L
same,MIC90,"C. difficile; C. difficile, 10 isolates, read-out: MIC90",4 mg/L
same,MIC50,C. perfringens,0.25 mg/L
same,MIC90,"C. perfringens; C. perfringens, 13 isolates",0.5 mg/L
same,MIC,C. perfringens; read-out: MIC Range,0.06 to 0.5 mg/L
same,MIC90,H. influenzae,0.015 mg/L
same,MIC50,"H. influenzae; H. influenzae, 18 isolates, read-out: MIC50",0.008 mg/L
same,MIC,"H. influenzae; H. influenzae, 18 isolates, read-out: MIC Range",0.004 to 0.03 mg/L
same,MIC50,M. catarrhalis,0.03 mg/L
same,MIC90,M. catarrhalis,0.06 mg/L
same,MIC,"M. catarrhalis; M. catarrhalis, 18 isolates, read-out: MIC Range",0.015 to 0.25 mg/L
same,MIC50,Legionella spp.,0.06 mg/L
same,MIC90,Legionella spp.,0.25 mg/L
same,MIC,Legionella spp.; read-out: MIC Range,0.03 to 0.25 mg/L
same,MIC,M. pneumoniae,0.06 to 0.12 mg/L
same,MIC90,N. gonorrhoeae,0.015 mg/L
same,MIC50,"N. gonorrhoeae; N. gonorrhoeae, 12 isolates, read-out: MIC50",0.004 mg/L
same,MIC,"N. gonorrhoeae; N. gonorrhoeae, 12 isolates, read-out: MIC Range",0.002 to 0.06 mg/L
same,MIC90,H. pylori,0.25 mg/L
same,MIC,H. pylori; read-out: MIC Range,0.06 to 0.25 mg/L
same,MIC50,"H. pylori; H. pylori, 17 isolates, read-out: MIC50",0.12 mg/L
same,MIC,M. avium; read-out: MIC Range,0.5 to 16 mg/L
same,MIC50,"M. avium; M. avium, 20 isolates, read-out: MIC50",2 mg/L
same,MIC90,"M. avium; M. avium, 20 isolates, read-out: MIC90",2 mg/L
